Source: patent US20250296922A1, “POLYSUBSTITUTED PYRROLIDINE DERIVATIVE, PREPARATION METHOD THEREFOR AND USE THEREOF” (SHANGHAI WENNAI THERAPEUTICS CO LTD, priority 2023, published 2025)
Like-named read-outs stand apart in the source and are kept apart here.

Assays:
CYP3A-M = CYP3A-M (Homo sapiens, UniProt P08684); test: Human liver microsomal CYP inhibition test, CYP3A-M (midazolam); type: in vitro ADME; conditions: human liver microsomes 0.2 mg/mL; substrate Midazolam
Protocol: (§1) 3.1 Buffer solutions: (1) potassium phosphate 100 mM; (2) magnesium chloride, 33 mM;
(§2) 3.2.3 Reservoir for compounds to be tested: Dissolving the compounds to be tested in DMSO to form a 10 mM DMSO solution.
(§3) 3.4.1 Preparation of human liver microsomal working solution (1.27×) (final concentration: 0.2 mg/mL)
(§4) 3.5.3 Adding 20 μL of substrate solution to the appropriate wells and 20 μL of potassium phosphate buffer to the blank wells;
(§5) 3.5.4 Adding 2 μL of different concentrations of target compounds (final concentrations from 0.05 μM to 50 μM, 7 concentrations in total) or standard inhibitors to each well, with 2 μL of methanol solution in the non-inhibitor and blank wells;
(§6) 3.5.5 Adding 1.012 mL of liver microsomes to 78.988 mL of potassium phosphate buffer, then adding 158 μL of liver microsomes solution to all wells; preheating the well plate for 10 minutes in a 37° C. water bath;
(§7) 3.5.6 Weighing 129.1 mg NADPH (purchased from SyncoZymes Co. Ltd.) and adding to 15.0 mL of 33 Mm MgCl2 solution to give a 10 mM concentration, adding 20 μL to each well;
(§8) 3.5.7 Mixing and incubating the well plate in a 37° C. water bath for 10 minutes, then adding 400 μL of cold termination solution at the appropriate time point;
(§9) 3.5.8 Centrifuging the sample at 4000 rpm for 20 minutes to precipitate the protein. Transferring 200 μL of supernatant to 100 μL of HPLC water and shaking for 10 minutes. The samples were analyzed by LC/MS/MS;
(§10) Percentage inhibition was plotted for blank control and different concentrations of target compounds by using XL fitting or SigmaPlot and the data were analyzed by non-linear regression. IC50 values were determined by using either 3-parameter or 4-parameter logistic equations.

[1] = Pharmacokinetic experiment, rat test, gavage administration; type: in vivo, SD rats; conditions: 10 mg/kg; for AUC(0-t) / Cmax: Sprague-Dawley, rat, plasma, po; for AUC(0-t): read-out: Area under the curve AUC0-t; for Cmax: read-out: blood concentration Cmax
Excerpt: 4.1.1 Abstract: SD rats were used as test animals, the LC/MS/MS method was applied to determine the drug concentration of the compounds of the Examples in plasma at different points after gavage administration to rats, to study the pharmacokinetic behavior of the compounds of the present invention in rats, and to evaluate their pharmacokinetic characteristics.
4.1.2.2 Test animals: 6 male SD rats and 6 female rats, all provided by Shanghai Jihui Laboratory Animal Breeding Co. The animals were fasted for at least 12 hours before administration and food supply was resumed 4 hours after administration.
4.1.2.3 Drug Preparation: Weighed an amount of the test compound separately and prepared a completely clear solution with a final concentration of 1 mg/mL using a mixed solvent of DMSO: Solutol: Saline (5%: 5%: 90%).
4.1.2.4 Administration: a dose of 10 mg/kg, a volume of 10 mL/kg.
4.1.3 Test operation: 0.1 mL blood samples were collected from the orbit before and 15 min, 30 min, 1 h, 2h, 4 h, 6h, 8 h, 10h, 24 h after the administration of the drug to male rats and placed in EDTA-K2 anticoagulant tubes. 0.03 mL blood samples were collected from the orbit before and 0.5h, 1 h, 2h, 3 h, 6h, 10 h and 24 h after administration to female rats. After blood samples were collected, they were placed in labelled centrifuge tubes in ice-water bath and rapidly centrifuged to separate the plasma at 4000 rpm for 10 min at 4° C. The plasma was stored at −70° C. or below for measurement.
The plasma samples were thawed at room temperature and 50 μL was added to 400 μL of acetonitrile containing the internal standard (40 ng/mL, terfenadine), vortexed for 1 min and centrifuged for 10 min at 4° C. and 15,400 g. 1 μL of the supernatant was injected for analysis.

[2] = Proportion of free drug in human plasma, equilibrium dialysis; type: in vitro ADME; conditions: 2 μM compound, dialysis 4 h, 37° C.
Protocol: On the day of the experiment, human plasma samples (purchased from Biomex) were thawed under running tap water and centrifuged at 3220 g for 5 min to remove blood clots. The pH of the resulting plasma was measured and adjusted to pH 7.4+0.1 by using 1% phosphoric acid or 1 N sodium hydroxide as required.
Pretreating the dialysis membranes according to the manufacturer's instructions: The dialysis membrane strips were soaked in ultrapure water at room temperature for approximately 1 hour. Afterwards, each membrane strip containing 2 layers of membrane was separated and soaked in ethanol: water (20:80 v: v) for approximately 20 minutes, then it was ready for use or stored at 2-8° C. (stored for up to 1 month). The membranes were rinsed and soaked in ultrapure water for 20 min before experiments.
A 10 mM DMSO solution of test compound or control warfarin was taken and diluted to 400 μM with DMSO, then 3 μl was taken and added to 597 μl of blank plasma matrix solution to obtain 2 μM of compound solution respectively. 50 μl of test compound solution or control solution was transferred to a sample collection plate with 3 replicate wells per sample. […]
Unbonded %, bonded % and recovered % were calculated using the following formulae. […]

CYP3A (printed CYP3A-M) = CYP3A (printed CYP3A-M) (Homo sapiens, UniProt P08684); test: Human liver microsomal CYP inhibition test, CYP3A-M (midazolam); type: in vitro ADME
Protocol: as §1, §2, §3, §4, §5, §6, §7, §8, §9, §10

Chain of CYP3A-M (P08684 2-503 limits assumed): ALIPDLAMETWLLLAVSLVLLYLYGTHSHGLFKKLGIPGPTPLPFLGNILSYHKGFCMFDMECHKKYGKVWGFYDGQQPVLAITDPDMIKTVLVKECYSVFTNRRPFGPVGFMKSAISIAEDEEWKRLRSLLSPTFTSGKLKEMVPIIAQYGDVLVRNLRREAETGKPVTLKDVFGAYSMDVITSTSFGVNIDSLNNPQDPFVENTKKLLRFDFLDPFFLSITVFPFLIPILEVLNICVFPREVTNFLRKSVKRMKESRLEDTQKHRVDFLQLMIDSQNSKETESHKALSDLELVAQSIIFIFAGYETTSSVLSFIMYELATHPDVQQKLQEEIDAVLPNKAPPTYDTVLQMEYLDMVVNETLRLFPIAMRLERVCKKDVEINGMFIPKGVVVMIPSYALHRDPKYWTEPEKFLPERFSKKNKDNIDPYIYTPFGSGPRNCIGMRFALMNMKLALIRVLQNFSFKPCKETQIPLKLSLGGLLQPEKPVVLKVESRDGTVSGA
Chain of CYP3A (printed CYP3A-M) (P08684 2-503 limits assumed): as above

In the case of `COc1c([C@H]2[C@H](C(=O)Nc3cccc(S(N)(=O)=O)c3)N[C@@](C)(C(F)(F)F)[C@H]2C)ccc(F)c1F` [Compound 8, (2R,3S,4S,5R)-3-(3,4-difluoro-2-methoxyphenyl)-4,5-dimethyl-aza-(3-aminosulfonylphenyl)-5-(trifluoromethyl) pyrrolidine-2-carboxamide], the IC50 (CYP3A-M) was 26.2 µM.

`COc1c([C@H]2[C@H](C(=O)Nc3ccnc(C(N)=O)c3)O[C@@](C)(C(F)(F)F)[C@H]2C)ccc(F)c1F` [VX-548, reference compound] showed an AUC(0-t) ([1]; female SD rats) of 10900 ng·h/mL, a Cmax ([1]; female SD rats) of 719 ng/mL and an AUC(0-t) ([1]; male SD rats) of 1210 ng·h/mL. The Cmax ([1]; male SD rats) was 385 ng/mL, the “free drug proportion of in human plasma” value [2] was 1.0% and the IC50 at 10 min (CYP3A (printed CYP3A-M); human, microsomes) was greater than 50 µM.

For `COc1c([C@H]2[C@H](C(=O)Nc3ccc[n+]([O-])c3)N[C@@](C)(C(F)(F)F)[C@H]2C)ccc(F)c1F` [Compound 7, 3-((2R,3S,4S,5R)-3-(3,4-difluoro-2-methoxyphenyl)-4,5-dimethyl-5-(trifluoromethyl)pyrrolidine-2-carboxamido)pyridine 1-oxide], the IC50 at 10 min (CYP3A (printed CYP3A-M); probe Midazolam, human liver microsomes 0.2 mg/mL, substrate Midazolam, read-out: IC50 (μM) CYP3A-M) was 30.9 µM.

With “4-((2R,3S,4S,5R)-3-(3,4-difluoro-2-(methoxy-d3)phenyl)-4,5-dimethyl-5-(trifluoromethyl) pyrrolidine-2-carboxamido)pyridinamide [Compound 11]” the “Area under the curve AUC0-t” value ([1]; female SD rats) was 23809 ng·h/mL, the “blood concentration Cmax” value ([1]; female SD rats) was 1850 ng/mL and the “Area under the curve AUC0-t” value ([1]; male SD rats) was 4656 ng·h/mL. For the same compound, the “blood concentration Cmax” value ([1]; male SD rats) was 1006 ng/mL, the “free drug proportion of in human plasma” value [2] was 1.6% and the IC50 (CYP3A-M) was greater than 50 µM.
